One assay concerns the target human recombinant BACE2 (Homo sapiens (Human), UniProt Q9Y5Z0). Briefly: In vitro enzymatic BACE2 FRET assay. The format is biochemical. Conditions: read-out: BACE2 Enzyme IC50.
For the next assay, the target named is Cathepsin D (CatD) (Homo sapiens (Human), UniProt P07339). Briefly: In vitro enzymatic Cathepsin D (CatD) FRET assay. The settings on record: read-out: Cat D Enzyme IC50. The assay is classed as biochemical.
Assay [1] deals with T1, BACE1 (Homo sapiens (Human), UniProt P56817). The assay is described as follows: In vitro BACE1 cell-based assay (Aβ40 in conditioned medium of cells stably expressing APP, HTRF).
Target sequence in this assay (P56817 46-501, species assumed): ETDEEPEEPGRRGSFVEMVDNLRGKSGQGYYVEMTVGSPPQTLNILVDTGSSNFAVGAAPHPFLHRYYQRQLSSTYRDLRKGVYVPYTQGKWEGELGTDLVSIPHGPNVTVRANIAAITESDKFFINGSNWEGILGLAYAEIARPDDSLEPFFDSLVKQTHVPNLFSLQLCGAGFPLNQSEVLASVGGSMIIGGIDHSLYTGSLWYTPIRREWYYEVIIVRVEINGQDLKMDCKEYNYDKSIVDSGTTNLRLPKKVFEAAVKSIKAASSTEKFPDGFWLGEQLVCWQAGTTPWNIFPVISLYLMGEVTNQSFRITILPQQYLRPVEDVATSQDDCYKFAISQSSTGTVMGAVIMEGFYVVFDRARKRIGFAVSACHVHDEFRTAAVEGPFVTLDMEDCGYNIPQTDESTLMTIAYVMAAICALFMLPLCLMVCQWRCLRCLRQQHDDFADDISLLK
Assay [2] deals with T1, BACE1. The assay is described as follows: In vitro enzymatic BACE1 FRET assay. The assay is classed as biochemical. The settings on record: read-out: BACE1 Enzyme IC50.
Target sequence in this assay (P56817 46-501): as the sequence (P56817 46-501, species assumed) above
Where [3] appears, read: Aβ40 in conditioned media after 24 h incubation.

Cathepsin D (CatD), sequence (P07339 65-412, species assumed): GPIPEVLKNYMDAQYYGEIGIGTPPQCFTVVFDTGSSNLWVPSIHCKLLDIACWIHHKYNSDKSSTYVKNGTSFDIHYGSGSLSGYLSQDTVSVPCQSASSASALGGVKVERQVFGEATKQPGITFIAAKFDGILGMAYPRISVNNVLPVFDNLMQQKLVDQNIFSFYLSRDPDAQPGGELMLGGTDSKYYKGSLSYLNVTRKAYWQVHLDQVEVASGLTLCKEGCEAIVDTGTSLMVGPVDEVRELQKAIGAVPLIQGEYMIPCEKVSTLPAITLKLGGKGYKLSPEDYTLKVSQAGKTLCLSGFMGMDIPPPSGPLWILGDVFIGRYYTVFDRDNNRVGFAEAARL
human recombinant BACE2, sequence (Q9Y5Z0 63-518): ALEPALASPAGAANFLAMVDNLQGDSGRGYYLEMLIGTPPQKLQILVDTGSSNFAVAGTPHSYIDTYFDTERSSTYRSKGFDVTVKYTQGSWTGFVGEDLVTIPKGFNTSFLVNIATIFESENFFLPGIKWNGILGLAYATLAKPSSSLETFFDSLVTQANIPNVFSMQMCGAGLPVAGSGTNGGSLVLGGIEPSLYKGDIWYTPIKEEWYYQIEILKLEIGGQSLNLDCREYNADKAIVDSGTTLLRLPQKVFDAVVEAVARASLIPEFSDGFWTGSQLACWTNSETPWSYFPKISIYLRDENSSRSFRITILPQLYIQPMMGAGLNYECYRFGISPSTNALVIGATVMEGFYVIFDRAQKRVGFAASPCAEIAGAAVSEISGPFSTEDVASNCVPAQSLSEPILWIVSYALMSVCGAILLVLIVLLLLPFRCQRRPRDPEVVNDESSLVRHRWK

For orientation: IC50 means the point on the concentration scale where inhibition reaches its midpoint. Regarding `C#C[C@@H](CC)Oc1cnc(/C(F)=C/c2ccc(F)c([C@]3(C)CS(=O)(=O)C(C)(C)C(N)=N3)c2)cn1` (single isomer, unassigned) [Example 177], the concentration for half-maximal inhibition (IC50) was determined as 101 nM at human recombinant BACE2, 61400 nM on Cathepsin D (CatD), 600 nM against BACE1 [1] (setting [3]) and 208 nM on BACE1 [2].
In the same order, the values of `C#C[C@H](CC)Oc1cnc(/C(F)=C/c2ccc(F)c([C@]3(C)CS(=O)(=O)C(C)(C)C(N)=N3)c2)cn1` (single isomer, unassigned) [Example 178] are 232 nM, 77600 nM, 22 nM and 3 nM.
Taken in the same sequence, the figures for `CC#C[C@@H](CC)Oc1cnc(/C(F)=C/c2ccc(F)c([C@]3(C)CS(=O)(=O)C(C)(C)C(N)=N3)c2)cn1` (single isomer, unassigned) [Example 198] were 371 nM, 38300 nM, 173 nM and 113 nM.
Regarding `CC#C[C@H](CC)Oc1cnc(/C(F)=C/c2ccc(F)c([C@]3(C)CS(=O)(=O)C(C)(C)C(N)=N3)c2)cn1` (single isomer, unassigned) [Example 199], the IC50 came to 102 nM on human recombinant BACE2, 51200 nM at Cathepsin D (CatD), 2 nM on BACE1 [1] (setting [3]) and 4 nM on BACE1 [2].
`C#CCOc1cnc(/C(F)=C/c2ccc(F)c([C@@]3(C)N=C(N)C(C)(C)S(=O)(=O)[C@H]3F)c2)cn1` (single isomer, unassigned) [Example 200]: the IC50 at human recombinant BACE2 was 86 nM; on BACE1 [1] it was 206 nM; on BACE1 [2], 18 nM.
For the molecule `C#CCOc1cnc(/C(F)=C/c2ccc(F)c([C@@]3(C)N=C(N)C(C)(C)S(=O)(=O)[C@@H]3F)c2)cn1` (single isomer, unassigned) [Example 201], the IC50 on human recombinant BACE2 was determined as 82 nM; at BACE1 [1], 214 nM; on BACE1 [2] it was 6 nM.
Consider `CC#C[C@@H](C)Oc1cnc(/C(F)=C/c2ccc(F)c([C@]3(C)CS(=O)(=O)C(C)(C)C(N)=N3)c2)cn1` (single isomer, unassigned) [Example 207], for which the IC50 amounted to 519 nM at human recombinant BACE2, 57500 nM on Cathepsin D (CatD), 2530 nM against BACE1 [1] (setting [3]) and 507 nM at BACE1 [2].
Regarding `CC#C[C@H](C)Oc1cnc(/C(F)=C/c2ccc(F)c([C@]3(C)CS(=O)(=O)C(C)(C)C(N)=N3)c2)cn1` (single isomer, unassigned) [Example 208], the 50% inhibitory concentration (IC50) at human recombinant BACE2 was 107 nM; on Cathepsin D (CatD) it was 79500 nM; against BACE1 [1] (setting [3]), 5 nM; on BACE1 [2] it was 1 nM.
For the molecule `CC1(C)C(N)=N[C@](C)(c2cc(/C=C(\F)c3cc4c(cn3)OCCO4)ccc2F)[C@@H](F)S1(=O)=O` (single isomer, unassigned) [Example 213], the IC50 at human recombinant BACE2 was determined as 683 nM; at Cathepsin D (CatD), 172000 nM; against BACE1 [1] (setting [3]), 3580 nM; at BACE1 [2], 626 nM.
With `CC1(C)C(N)=N[C@](C)(c2cc(/C=C(\F)c3cc4c(cn3)OCCO4)ccc2F)[C@H](F)S1(=O)=O` (single isomer, unassigned) [Example 214], the IC50 on human recombinant BACE2 stood at 851 nM; at Cathepsin D (CatD) it was 303000 nM; against BACE1 [1] (setting [3]) it was 5940 nM; on BACE1 [2], 225 nM.
In the same order, the values of `CCC#C[C@@H](C)Oc1cnc(/C(F)=C/c2ccc(F)c([C@]3(C)CS(=O)(=O)C(C)(C)C(N)=N3)c2)cn1` (single isomer, unassigned) [Example 216] are 364 nM, 29900 nM, 5360 nM and 628 nM.
Taken in the same sequence, the figures for `CCC#C[C@H](C)Oc1cnc(/C(F)=C/c2ccc(F)c([C@]3(C)CS(=O)(=O)C(C)(C)C(N)=N3)c2)cn1` (single isomer, unassigned) [Example 217] were 233 nM, 26800 nM, 288 nM and 9 nM.
As to `C[C@]1(c2cc(/C=C(\F)c3ccc(Br)cn3)ccc2F)N=C(N)C2(CF)CC[C@@H]1S2(=O)=O` (stereo in doubt) [Example 101, (1R,4R,5S)-2-amino-4-(5-((Z)-2-(5-bromopyridin-2-yl)-2-fluorovinyl)-2-fluorophenyl)-1-(fluoromethyl)-4-methyl-8-thia-3-azabicyclo[3.2.1]oct-2-ene 8,8-dioxide], the IC50 at human recombinant BACE2 came out at 13 nM; against BACE1 [1] (setting [3]), 79 nM; on BACE1 [2], 5 nM.
As for `C[C@]1(c2cc(/C=C(\F)c3ccc(C#N)cn3)ccc2F)N=C(N)C2(CF)CC[C@@H]1S2(=O)=O` (stereo in doubt) [Example 102, 6-((Z)-2-(3-((1S,2R,5R)-4-amino-5-(fluoromethyl)-2-methyl-8,8-dioxido-8-thia-3-azabicyclo[3.2.1]oct-3-en-2-yl)-4-fluorophenyl)-1-fluorovinyl)nicotinonitrile], the IC50 is 32 nM on human recombinant BACE2, greater than 133000 nM at Cathepsin D (CatD), 17 nM on BACE1 [1] (setting [3]) and 5 nM at BACE1 [2].
For the molecule `C[C@@]1(c2cc(/C=C(\F)c3ccc(Cl)cn3)ccc2F)CS(=O)(=O)C2(CCC2)C(N)=N1` [Example 100, (R,Z)-9-amino-7-(5-(2-(5-chloropyridin-2-yl)-2-fluorovinyl)-2-fluorophenyl)-7-methyl-5-thia-8-azaspiro[3.5]non-8-ene 5,5-dioxide], the IC50 was 7 nM on human recombinant BACE2, 91000 nM on Cathepsin D (CatD), 472 nM at BACE1 [1] (setting [3]) and 10 nM on BACE1 [2].
Turning to `C#CCOc1cnc(/C(F)=C/c2ccc(F)c([C@]3(C)CS(=O)(=O)N(C)C(N)=N3)c2)cn1` [Example 112, (R,Z)-3-amino-5-(2-fluoro-5-(2-fluoro-2-(5-(prop-2-yn-1-yloxy)pyrazin-2-yl)vinyl)phenyl)-2,5-dimethyl-5,6-dihydro-2H-1,2,4-thiadiazine 1,1-dioxide], the IC50 on Cathepsin D (CatD) amounted to 35800 nM; against BACE1 [1] it was 8 nM; at BACE1 [2], 3 nM.
As for `CN1C(N)=N[C@](C)(c2cc(/C=C(\F)c3cnc(OCc4ncco4)cn3)ccc2F)CS1(=O)=O` [Example 116, (R,Z)-3-amino-5-(2-fluoro-5-(2-fluoro-2-(5-(oxazol-2-ylmethoxy)pyrazin-2-yl)vinyl)phenyl)-2,5-dimethyl-5,6-dihydro-2H-1,2,4-thiadiazine 1,1-dioxide], the IC50 came to 45 nM on human recombinant BACE2, 1 nM against BACE1 [1] (setting [3]) and 3 nM at BACE1 [2].
For `C#CCOc1cnc(/C(F)=C/c2ccc(F)c([C@@]3(C)N=C(N)N(C)S(=O)(=O)C3(C)C)c2)cn1` [Example 183, (R,Z)-3-amino-5-(2-fluoro-5-(2-fluoro-2-(5-(prop-2-yn-1-yloxy)pyrazin-2-yl)vinyl)phenyl)-2,5,6,6-tetramethyl-5,6-dihydro-2H-1,2,4-thiadiazine 1,1-dioxide], the IC50 at BACE1 [1] (setting [3]) stood at 75 nM; at BACE1 [2], 13 nM.
As to `CC1(C)C(N)=N[C@](C)(c2cc(/C=C(\F)c3cnc(Cl)cn3)cc(F)c2F)CS1(=O)=O` [Example 193, (R,Z)-5-amino-3-(5-(2-(5-chloropyrazin-2-yl)-2-fluorovinyl)-2,3-difluorophenyl)-3,6,6-trimethyl-3,6-dihydro-2H-1,4-thiazine 1,1-dioxide], the IC50 on Cathepsin D (CatD) stood at 82300 nM; on BACE1 [1] (setting [3]), 833 nM; at BACE1 [2], 121 nM.
For the molecule `C#CCOc1cnc(/C(F)=C/c2ccc(F)c([C@@]3(C)N=C(N)C(C)(C)S(=O)(=O)C3(F)F)c2)cn1` [Example 202, (R,Z)-5-amino-2,2-difluoro-3-(2-fluoro-5-(2-fluoro-2-(5-(prop-2-yn-1-yloxy)pyrazin-2-yl)vinyl)phenyl)-3,6,6-trimethyl-3,6-dihydro-2H-1,4-thiazine 1,1-dioxide], the IC50 on human recombinant BACE2 amounted to 870 nM; on BACE1 [1], 9570 nM; at BACE1 [2], 166 nM.
In the same order, the values of `Cc1cc(COc2cnc(/C(F)=C/c3cc(F)c(F)c([C@]4(C)CS(=O)(=O)N(C)C(N)=N4)c3)cn2)on1` [Example 221, (R,Z)-3-amino-5-(2,3-difluoro-5-(2-fluoro-2-(5-((3-methylisoxazol-5-yl)methoxy)pyrazin-2-yl)vinyl)phenyl)-2,5-dimethyl-5,6-dihydro-2H-1,2,4-thiadiazine 1,1-dioxide] are 197 nM, 215 nM and 38 nM.
`C=CCOc1cnc(/C(F)=C/c2cc(F)c(F)c([C@]3(C)CS(=O)(=O)N(C)C(N)=N3)c2)cn1` [Example 227, (R,Z)-5-(5-(2-(5-(allyloxy)pyrazin-2-yl)-2-fluorovinyl)-2,3-difluorophenyl)-3-amino-2,5-dimethyl-5,6-dihydro-2H-1,2,4-thiadiazine 1,1-dioxide]: the IC50 against BACE1 [1] is 427 nM; at BACE1 [2], 46 nM.
As for `CN1C(N)=N[C@](C)(c2cc(/C=C(\F)c3cnc(OCC#CCO)cn3)ccc2F)CS1(=O)=O` [Example 252, (R,Z)-3-amino-5-(2-fluoro-5-(2-fluoro-2-(5-((4-hydroxybut-2-yn-1-yl)oxy)pyrazin-2-yl)vinyl)phenyl)-2,5-dimethyl-5,6-dihydro-2H-1,2,4-thiadiazine 1,1-dioxide], the IC50 was determined as 56 nM on human recombinant BACE2, 7 nM on BACE1 [1] (setting [3]) and 10 nM on BACE1 [2].
`C[C@]1(c2cc(/C=C(/F)C3CCCO3)ccc2F)N=C(N)[C@@]2(CF)CC[C@@H]1S2(=O)=O` (stereo partly drawn) [Example 278, (1R,4R,5S)-2-amino-4-(2-fluoro-5-((E)-2-fluoro-2-(tetrahydrofuran-2-yl)vinyl)phenyl)-1-(fluoromethyl)-4-methyl-8-thia-3-azabicyclo[3.2.1]oct-2-ene 8,8-dioxide]: the IC50 turned out to be 1980 nM on BACE1 [1] (setting [3]) and 1110 nM at BACE1 [2].
